According to patent US3974152A, “3-Ethyl- and 3-(2'cyanoethyl)-cephalosporins” (Glaxo Laboratories Limited, priority 1970, dated 1976):
≈ marks a conversion by molar mass, not a printed value.

Tests used:
STAPH AUREUS 604 = assay: Tube Dilution Assay, STAPH AUREUS 604; assay type: cell-based; settings: Staphylococcus aureus; read-out: Tube Dilution Assay, gram positive, STAPH AUREUS 604
STAPH AUREUS 663 = assay: Tube Dilution Assay, STAPH AUREUS 663; assay type: cell-based; settings: Staphylococcus aureus; read-out: Tube Dilution Assay, gram positive, STAPH AUREUS 663
STAPH AUREUS 3452 = assay: Tube Dilution Assay, STAPH AUREUS 3452; assay type: cell-based; settings: Staphylococcus aureus; read-out: Tube Dilution Assay, gram positive, STAPH AUREUS 3452
STAPH AUREUS 11127 [1] = assay: Tube Dilution Assay, STAPH AUREUS 11127; assay type: cell-based; settings: Staphylococcus aureus; read-out: Tube Dilution Assay, gram positive, STAPH AUREUS 11127
E. COLI 573 = assay: Tube Dilution Assay, E. COLI 573; assay type: cell-based; settings: Escherichia coli; read-out: Tube Dilution Assay, gram negative, E. COLI 573
S. TYPHIMURIUM 804 = assay: Tube Dilution Assay, S. TYPHIMURIUM 804; assay type: cell-based; settings: Salmonella enterica, read-out: Tube Dilution Assay, gram negative, S. TYPHIMURIUM 804
PR. MIRABILIS 431 = assay: Tube Dilution Assay, PR. MIRABILIS 431; assay type: cell-based; settings: Proteus mirabilis; read-out: Tube Dilution Assay, gram negative, PR. MIRABILIS 431
STAPH AUREUS 11127 [2] = assay: Mouse Protection, STAPH AUREUS 11127; assay type: in vivo; settings: Staphylococcus aureus
[3] = R.O.U.R.: recovery of the antibiotic from the urine of female rats following oral administration; assay type: in vivo; settings: rat
From the text: *R.O.U.R. = % recovery of the antibiotic from the urine of female rats
following oral administration of the antibiotic.

[4] = system: gram-positive and gram-negative organisms; assay: in vitro antibacterial tests; assay type: cell-based
[5] = animal tests of degradation in vivo
[6] = absorption and blood levels by the oral route; assay type: in vivo
[7] = activity on oral administration; assay type: in vivo

Row | SMILES | MIC (STAPH AUREUS 604) [µg/mL] | MIC (STAPH AUREUS 663) [µg/mL] | MIC (STAPH AUREUS 3452) [µg/mL] | MIC (STAPH AUREUS 11127 [1]) [µg/mL] | MIC (E. COLI 573) [µg/mL] | MIC (S. TYPHIMURIUM 804) [µg/mL] | MIC (PR. MIRABILIS 431) [µg/mL] | ED50 (STAPH AUREUS 11127 [2]) [mg/kg] | dose excreted [3] [%] | activity against gram-positive and gram-negative organisms [4] | degradation in vivo [5] | absorption by the oral route [6] | blood levels [6] | activity on oral administration [7]
1 | CCC1=C(C(=O)O)N2C(=O)[C@@H](NC(=O)[C@H](N)c3ccccc3)[C@H]2SC1.O=C(O)C(F)(F)F [1(d), 7β-(D-2-Amino-2-phenylacetamido)-3-ethylceph-3-em-4-carboxylic acid, Trifluoroacetic Acid Salt] | 1.6 | 0.3 | 1.6 | 0.08 | 8 | 16 | 16 | < 6 | 45 |  |  |  |  | 
2 | N#CCCC1=C(C(=O)O)N2C(=O)[C@@H](NC(=O)Cc3cccs3)[C@H]2SC1 [2(c), 3-(2-Cyanoethyl)-7β-(2-thienylacetamido)ceph-3-em-4-carboxylic acid] | 1.25 (≈ 3.31 µM) | 0.08 (≈ 0.212 µM) | 4 (≈ 10.6 µM) | 1 (≈ 2.65 µM) | 62 (≈ 164 µM) | 16 (≈ 42.4 µM) | 31 (≈ 82.1 µM) |  | 2.1 |  |  |  |  | 
3 | CCC1=C(C(=O)O)N2C(=O)[C@@H](NC(=O)[C@H](N)c3ccccc3)[C@H]2SC1 [Example 4(b), 7β-(D-2-Amino-2-phenylacetamido)-3-ethylceph-3-em-4-carboxylic acid] |  |  |  |  |  |  |  |  |  | active against gram-positive and gram-negative organisms | substantially resistant to degradation in vivo | well absorbed | good blood levels | appreciable level of activity
